Measurements published in patent US5145854A, “1-formyl-5,8,10-trideazafolates” (priority 1991, dated 1992).
Where two headings read alike, the source gives them in different places.

Tests used:
[1] = biological target: T1, hog liver glycinamide ribonucleotide formyltransferase (GARFTase) (Sus scrofa, UniProt A0A8W4FJW8); assay: Inhibition of hog liver glycinamide ribonucleotide formyltransferase; assay type: biochemical; conditions: for IC50: hog liver enzyme, (R,S) diastereomer mixture where marked, read-out: I50 (μM) GARFTase
T1 construct: hog liver glycinamide ribonucleotide formyltransferase; from tissue; host or cells: hog liver
T1 sequence (A0A8W4FJW8 1-1009): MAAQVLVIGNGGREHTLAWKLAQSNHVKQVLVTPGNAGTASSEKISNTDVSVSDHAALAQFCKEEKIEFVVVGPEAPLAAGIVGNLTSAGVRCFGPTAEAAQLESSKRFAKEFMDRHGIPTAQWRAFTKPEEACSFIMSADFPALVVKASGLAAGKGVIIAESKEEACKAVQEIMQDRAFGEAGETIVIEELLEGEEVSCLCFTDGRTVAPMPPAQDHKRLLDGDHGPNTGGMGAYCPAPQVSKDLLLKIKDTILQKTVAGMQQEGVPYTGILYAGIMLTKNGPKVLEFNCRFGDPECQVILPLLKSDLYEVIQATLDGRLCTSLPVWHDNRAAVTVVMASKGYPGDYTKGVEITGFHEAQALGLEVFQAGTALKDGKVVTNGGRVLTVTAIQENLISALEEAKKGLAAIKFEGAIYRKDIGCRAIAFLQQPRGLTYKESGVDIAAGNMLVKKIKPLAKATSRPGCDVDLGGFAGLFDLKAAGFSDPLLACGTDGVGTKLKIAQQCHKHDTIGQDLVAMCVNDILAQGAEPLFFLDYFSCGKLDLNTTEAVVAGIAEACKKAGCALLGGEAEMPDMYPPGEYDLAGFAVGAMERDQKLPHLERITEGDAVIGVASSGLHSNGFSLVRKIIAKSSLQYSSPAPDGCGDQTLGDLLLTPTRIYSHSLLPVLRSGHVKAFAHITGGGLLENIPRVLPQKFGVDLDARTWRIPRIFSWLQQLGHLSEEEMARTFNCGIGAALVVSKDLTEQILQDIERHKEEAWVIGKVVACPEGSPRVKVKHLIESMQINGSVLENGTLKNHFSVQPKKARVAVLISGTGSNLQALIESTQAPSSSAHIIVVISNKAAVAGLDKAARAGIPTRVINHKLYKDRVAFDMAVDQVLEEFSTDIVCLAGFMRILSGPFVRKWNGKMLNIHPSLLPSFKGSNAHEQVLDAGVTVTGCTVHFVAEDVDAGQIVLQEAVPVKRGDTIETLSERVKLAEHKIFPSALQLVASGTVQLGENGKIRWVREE
Source text: The representative compound of the present invention is 10-formyl-5,8,10-trideazatetrahydrofolic acid (FTDF) having the formula 1.

[2] = biological target: AICARFTase (Homo sapiens, UniProt P31939); assay: Inhibition of AICARFTase; assay type: biochemical
Chain of AICARFTase (P31939 whole entry): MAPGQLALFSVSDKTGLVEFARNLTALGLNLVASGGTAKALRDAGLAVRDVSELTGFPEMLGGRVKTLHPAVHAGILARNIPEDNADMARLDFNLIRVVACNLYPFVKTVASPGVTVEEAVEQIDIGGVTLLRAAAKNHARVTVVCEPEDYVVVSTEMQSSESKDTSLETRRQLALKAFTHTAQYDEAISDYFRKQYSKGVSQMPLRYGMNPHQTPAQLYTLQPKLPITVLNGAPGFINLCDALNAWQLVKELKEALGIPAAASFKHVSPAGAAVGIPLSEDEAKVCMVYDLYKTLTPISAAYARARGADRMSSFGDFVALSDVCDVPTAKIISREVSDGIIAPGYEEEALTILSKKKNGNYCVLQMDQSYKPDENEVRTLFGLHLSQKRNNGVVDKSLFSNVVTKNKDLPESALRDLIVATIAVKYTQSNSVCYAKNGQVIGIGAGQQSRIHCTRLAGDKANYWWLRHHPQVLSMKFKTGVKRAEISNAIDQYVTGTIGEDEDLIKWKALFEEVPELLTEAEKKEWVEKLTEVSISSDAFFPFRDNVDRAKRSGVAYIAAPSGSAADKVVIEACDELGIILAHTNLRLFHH

Row | IC50 [1] | potency against GARFTase relative to DDATHF ([1]; hog liver GARFTase, identical experimental conditions) | IC50 ([2]; read-out: I50 (μM) AICARFTase) | Structure (SMILES) | IC50 [2]
1 | 2.5 µM | – | – | Nc1nc(N)c(CCCNc2ccc(C(=O)N[C@@H](CCC(=O)O)C(=O)O)cc2)c(=O)[nH]1 [Compound 5-DACTHF, 5-deazaacyclotetrahydrofolic acid, reference compound] | –
2 | – | – | – | Nc1nc2c(c(=O)[nH]1)CC(CCc1ccc(C(=O)N[C@@H](CCC(=O)O)C(=O)O)cc1)CN2 (some centres unmarked) [DDATHF, 5,10-dideazatetrahydrofolic acid, reference compound] | > 500 µM
3 | 0.15 µM | almost twice as potent | 18 µM | Nc1nc2ccc(CC(C=O)c3ccc(C(=O)N[C@@H](CCC(=O)O)C(=O)O)cc3)cc2c(=O)[nH]1 (some centres unmarked) [FTDF, 10-Formyl-5,8,10-trideazafolic Acid] | –
